Test results as given in patent US20140255451A1, “Implantable Medical Device Comprising A Macrocyclic Triene Lactone Drug And Minimal Antioxidant Stabilizer And Method Of Fabrication” (ABBOTT CARDIOVASCULAR SYSTEMS INC., priority 2013, published 2014).

Experiment: Decrease in BHT content on a stent due to each manufacturing step (FIG. 1)
Format: physicochemical
Settings: for reduction of the amount of BHT present in the drug reservoir layer: everolimus/BHT Xience V stent
Excerpt: FIG. 1 is a graph showing the decrease in BHT content on a stent due to each step in the manufacturing process in which a macrocyclic triene lactone and BHT are present.
For example, with regard to the above-mentioned Xience V stent, the process steps for coating the stent include spray coating a drug reservoir layer solution comprising everolimus and BHT onto a stent, which includes a primer layer, then drying the coated stent at an elevated temperature, mounting the stent on a delivery catheter and, finally, sterilizing the mounted stent/catheter. […] FIG. 1 relates to a stent comprising everolimus as the macrocyclic triene lactone and BHT as the antioxidant stabilizer but it is understood that similar if not identical results would be observed if a different macrocyclic triene lactone were used with BHT. Likewise it is expected that similar results would be obtained in terms of the magnitude of the effect at each step of a different antioxidant stabilizer were used.
Calculation of the proper amount of BHT to include with everolimus on a stent to arrive at a finished catheter/stent product that has the desired amount of residual BHT, i.e., about 0.001% to about 0.01% w/w based on the weight of everolimus on the stent, can be accomplished in two ways. At one extreme is stoichiometric reduction in the amount of BHT on the stent as the fabrication steps progress. In this approach, the amount of BHT drops by a constant amount at each fabrication step independent of the starting amount of BHT present. At the other extreme is a percentage drop where amount of the BHT decreases by the same percentage in each fabrication step, likewise independent of starting amount of BHT. Table 1 exemplifies these extremes compared to the known loss of BHT using the current […] stent and everolimus, which contains 0.20% (w/w) of BHT based on the weight of everolimus.
Thus, the fabrication process shown in FIG. 1 affords a drop in the amount of BHT from 0.2% in the starting material down to approximately 0.044% in the finished product. To achieve a final amount of BHT that is between the presently preferred […] and 0.01%, assuming the same proportional decrease in the amount of BHT, a starting amount in the coating solvent would be about 0.0455% (w/w) or less. On the other hand, assuming the same absolute decrease in the amount of BHT present in the finished product (stoichiometric loss), would require something less than about 0.166% (w/w) BHT in the coating solvent. Of course, a BHT reduction process that is neither stoichiometric nor proportional is possible, in which case the starting amount of BHT on the stent would be between the two extremes. It is clear, however, that beginning with about 0.0166% (w/w) BHT based on everolimus would in all instances result in a finished product have less that 0.01% (w/w) of BHT, an amount that would for all intents and purposes result in an insignificant exposure of a patient to the antioxidant.

Q: With Cc1cc(C(C)(C)C)c(O)c(C(C)(C)C)c1 [BHT, butylated hydroxytoluene] as the compound, how does the “reduction of the amount of BHT present in the drug reservoir layer” value (shortened to “reduction of the amount of BHT present”) (catheter mounting step) read?
A: The value was “about 1%”.

Q: And the “% Antioxidant (w/w, based on everolimus) in finished product” value (current XV process, 0.20% BHT initially provided in everolimus)?
A: Its value is “approximately 0.044 % (w/w, based on everolimus)”.

Q: What about the “reduction of the amount of BHT present” value (drying step at elevated temperature) of the same compound?
A: The value was “about 9%”.

Q: And the “reduction of the amount of BHT present” value (ethylene oxide sterilization step)?
A: The value was “about 64%”.

Q: What about the “additional reduction of BHT” value (follow-up ethylene oxide sterilization on the already sterilized catheter/stent) of the same compound?
A: The value was 30%.

Q: What about the “reduction of the amount of BHT present” value (spray coating step) of the same compound?
A: Its value is “about 61%”.
